Measurements from patent US12091426B2, “Bifunctional degraders of hematopoietic progenitor kinase and therapeutic uses thereof” (Nurix Therapeutics, Inc., priority 2021, dated 2024).

Target: T1, HPK1 (Homo sapiens, UniProt Q92918)
T1 construct: A HiBiT tag was introduced by CRISPR on the N terminus of HPK1 in Jurkat cells; host or cells: Jurkat cells (ATCC TIB-152), monoclonal line with CRISPR knock-in of HiBiT at the endogenous HPK1 locus
Assay: HPK1 Cellular HiBit Degradation Assay
Assay type: cell-based
Settings: HiBiT HPK1 Jurkat cells, 24 hrs; for DC50: concentration at which 50% of HPK1 was remaining, read-out: DC50 Category; for Dmax: Jurkat, maximum degradation vs DMSO vehicle control, read-out: Dmax Category
Method in brief: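 Jurkat cells with CRISPR knock-in N-terminal HiBiT-HPK1 were treated with CTMs (11-point, 3.16-fold, 10 uM to 0.1 nM final) for 24 hrs at 37° C. HiBiT lytic luminescence, with parental Jurkat as background and DMSO as 100%, gave % HPK1 remaining; four-parameter fit yielded DC50 and Dmax (100 minus lowest % remaining).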

T1 sequence (Q92918 whole entry): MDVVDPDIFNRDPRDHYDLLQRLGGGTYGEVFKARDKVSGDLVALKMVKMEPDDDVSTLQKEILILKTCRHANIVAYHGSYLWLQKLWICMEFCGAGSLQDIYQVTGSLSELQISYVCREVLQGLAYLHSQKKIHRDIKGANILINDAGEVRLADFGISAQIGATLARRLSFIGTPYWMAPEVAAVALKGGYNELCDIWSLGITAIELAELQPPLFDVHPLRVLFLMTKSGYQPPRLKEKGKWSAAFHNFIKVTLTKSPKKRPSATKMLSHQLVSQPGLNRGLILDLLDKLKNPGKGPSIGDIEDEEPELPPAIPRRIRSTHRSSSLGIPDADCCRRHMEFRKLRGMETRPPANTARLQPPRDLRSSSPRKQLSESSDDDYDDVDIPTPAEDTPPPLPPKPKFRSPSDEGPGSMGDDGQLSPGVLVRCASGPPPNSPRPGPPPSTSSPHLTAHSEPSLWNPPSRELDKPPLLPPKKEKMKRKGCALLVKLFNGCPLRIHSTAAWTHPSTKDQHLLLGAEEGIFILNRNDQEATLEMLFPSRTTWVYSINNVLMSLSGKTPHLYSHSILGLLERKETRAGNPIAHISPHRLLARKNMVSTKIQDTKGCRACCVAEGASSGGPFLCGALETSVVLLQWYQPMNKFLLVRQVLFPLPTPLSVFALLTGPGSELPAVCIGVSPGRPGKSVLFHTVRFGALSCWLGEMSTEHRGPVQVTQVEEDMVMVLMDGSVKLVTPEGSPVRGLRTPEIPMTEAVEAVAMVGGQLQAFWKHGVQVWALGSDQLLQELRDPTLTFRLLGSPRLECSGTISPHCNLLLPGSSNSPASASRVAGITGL

Row | Structure (SMILES) | DC50 | Dmax
1 | CC(C)n1cnc2cc(-c3ccc4c(c3)N([C@H]3C[C@@H](N5CCC[C@H](F)C5)C3)C(=O)C43CCN(C(=O)C4(C)CCN(C(=O)CC5CCN(c6ccc(C7CCC(=O)NC7=O)cn6)CC5)CC4)CC3)nc(NC3CC3)c21 (mixture of isomers) [Example 206, (3RS)-3-[6-(4-{2-[4-({6-[4-(cyclopropylamino)-3-(propan-2-yl)-3H-imidazo[4,5-c]pyridin-6-yl]-2-oxo-1-[(1S,3S)-3-[(3S)-3-fluoropiperidin-1-yl]cyclobutyl]-1,2-dihydrospiro[indole-3,4′-piperidin]-1′-yl}carbonyl)-4-methylpiperidin-1-yl]-2-oxoethyl}piperidin-1-yl)pyridin-3-yl]piperidine-2,6-dione] | 100 to 500 nM | 50 to 70%
2 | CC(C)n1cnc2cc(-c3ccc4c(c3)N([C@H]3C[C@@H](N5CC6CCC(C5)O6)C3)C(=O)C43CCN(C(=O)C4(C)CCN(C(=O)CC5CCN(c6ccc(C7CCC(=O)NC7=O)cn6)CC5)CC4)CC3)nc(NC3CC3)c21 (mixture of isomers) [Example 207, (3RS)-3-[6-(4-{2-[4-({6-[4-(cyclopropylamino)-3-(propan-2-yl)-3H-imidazo[4,5-c]pyridin-6-yl]-2-oxo-1-[(1S,3S)-3-{8-oxa-3-Azabicyclo[3.2.1]octan-3-yl}cyclobutyl]-1,2-dihydrospiro[indole-3,4′-piperidin]-1′-yl}carbonyl)-4-methylpiperidin-1-yl]-2-oxoethyl}piperidin-1-yl)pyridin-3-yl]piperidine-2,6-dione] | 500 to 1000 nM | 50 to 70%
3 | CC(C)n1cnc2cc(-c3ccc4c(c3)N([C@H]3C[C@@H](N5CCC(F)CC5)C3)C(=O)C43CCN(C(=O)C4(C)CCN(C(=O)C5CCN(c6ccc(C7CCC(=O)NC7=O)cn6)CC5)CC4)CC3)nc(NC3CC3)c21 (mixture of isomers) [Example 208, (3RS)-3-(6-{4-[4-({6-[4-(cyclopropylamino)-3-(propan-2-yl)-3H-imidazo[4,5-c]pyridin-6-yl]-2-oxo-1-[(1S,3S)-3-(4-fluoropiperidin-1-yl)cyclobutyl]-1,2-dihydrospiro[indole-3,4′-piperidin]-1′-yl}carbonyl)-4-methylpiperidine-1-carbonyl]piperidin-1-yl}pyridin-3-yl)piperidine-2,6-dione] | 100 to 500 nM | 50 to 70%
4 | CC(C)n1cnc2cc(-c3ccc4c(c3)N([C@H]3C[C@@H](N5CCCCC5)C3)C(=O)C43CCN(C(=O)C4(C)CCN(C(=O)C5CCN(c6ccc(C7CCC(=O)NC7=O)nn6)CC5)CC4)CC3)nc(NC3CC3)c21 (mixture of isomers) [Example 209, (3RS)-3-(6-{4-[4-({6-[4-(cyclopropylamino)-3-(propan-2-yl)-3H-imidazo[4,5-c]pyridin-6-yl]-2-oxo-1-[(1S,3S)-3-(piperidin-1-yl)cyclobutyl]-1,2-dihydrospiro[indole-3,4′-piperidin]-1′-yl}carbonyl)-4-methylpiperidine-1-carbonyl]piperidin-1-yl}pyridazin-3-yl)piperidine-2,6-dione] | < 100 nM | 70 to 85%
5 | CC(C)n1cnc2cc(-c3ccc4c(c3)N([C@H]3C[C@@H](N5CCCCC5)C3)C(=O)C43CCN(C(=O)C4(C)CCN(C(=O)C5CCN(c6ccc(C7CCC(=O)NC7=O)c(F)c6)CC5)CC4)CC3)nc(NC3CC3)c21 (mixture of isomers) [Example 210, (3RS)-3-(4-{4-[4-({6-[4-(cyclopropylamino)-3-(propan-2-yl)-3H-imidazo[4,5-c]pyridin-6-yl]-2-oxo-1-[(1S,3S)-3-(piperidin-1-yl)cyclobutyl]-1,2-dihydrospiro[indole-3,4′-piperidin]-1′-yl}carbonyl)-4-methylpiperidine-1-carbonyl]piperidin-1-yl}-2-Fluorophenyl)piperidine-2,6-dione] | < 100 nM | 70 to 85%
6 | CC(C)n1cnc2cc(-c3ccc4c(c3)N([C@H]3C[C@@H](N5CCCCC5)C3)C(=O)C43CCN(C(=O)C4(C)CCN(C(=O)C5CCN(c6ccc(C7CCC(=O)NC7=O)cn6)CC5)CC4)CC3)nc(NC3CCOCC3)c21 (mixture of isomers) [Example 214, (3RS)-3-[6-(4-{4-methyl-4-[(6-{4-[(oxan-4-yl)amino]-3-(propan-2-yl)-3H-imidazo[4,5-c]pyridin-6-yl}-2-oxo-1-[(1S,3S)-3-(piperidin-1-yl)cyclobutyl]-1,2-dihydrospiro[indole-3,4′-piperidin]-1′-yl)carbonyl]piperidine-1-carbonyl}piperidin-1-yl)pyridin-3-yl]piperidine-2,6-dione] | < 100 nM | 70 to 85%
7 | CC(C)n1cnc2cc(-c3ccc4c(c3)N([C@H]3C[C@@H](N5C6CCC5COC6)C3)C(=O)C43CCN(C(=O)C4(C)CCN(C(=O)C5CCN(c6ccc(C7CCC(=O)NC7=O)cn6)CC5)CC4)CC3)nc(NC3CC3)c21 (mixture of isomers) [Example 215, (3RS)-3-(6-{4-[4-({6-[4-(cyclopropylamino)-3-(propan-2-yl)-3H-imidazo[4,5-c]pyridin-6-yl]-2-oxo-1-[(1S,3S)-3-{3-oxa-8-azabicyclo[3.2.1]octan-8-yl}cyclobutyl]-1,2-dihydrospiro[indole-3,4′-piperidin]-1′-yl}carbonyl)-4-methylpiperidine-1-carbonyl]piperidin-1-yl}pyridin-3-yl)piperidine-2,6-dione] | < 100 nM | 70 to 85%
8 | CC(C)n1cnc2cc(-c3ccc4c(c3)N([C@H]3C[C@@H](N5CCOCC5)C3)C(=O)C43CCN(C(=O)C4(C)CCN(C(=O)C5CCN(c6ccc(C7CCC(=O)NC7=O)cn6)CC5)CC4)CC3)nc(NC3CC3)c21 (mixture of isomers) [Example 216, (3RS)-3-(6-{4-[4-({6-[4-(cyclopropylamino)-3-(propan-2-yl)-3H-imidazo[4,5-c]pyridin-6-yl]-2-oxo-1-[(1S,3S)-3-(MORPHOLIN-4-yl)cyclobutyl]-1,2-dihydrospiro[indole-3,4′-piperidin]-1′-yl}carbonyl)-4-methylpiperidine-1-carbonyl]piperidin-1-yl}pyridin-3-yl)piperidine-2,6-dione] | 100 to 500 nM | 50 to 70%
9 | CC(C)n1cnc2cc(-c3ccc4c(c3)N([C@H]3C[C@@H](N5CC6CCC(C6)C5)C3)C(=O)C43CCN(C(=O)C4(C)CCN(C(=O)C5CCN(c6ccc(C7CCC(=O)NC7=O)cn6)CC5)CC4)CC3)nc(NC3CC3)c21 (mixture of isomers) [Example 217, (3RS)-3-(6-{4-[4-({6-[4-(cyclopropylamino)-3-(propan-2-yl)-3H-imidazo[4,5-c]pyridin-6-yl]-2-oxo-1-[(1S,3S)-3-{3-Azabicyclo[3.2.1]octan-3-yl}cyclobutyl]-1,2-dihydrospiro[indole-3,4′-piperidin]-1′-yl}carbonyl)-4-methylpiperidine-1-carbonyl]piperidin-1-yl}pyridin-3-yl)piperidine-2,6-dione] | < 100 nM | > 85%
10 | CC(C)n1cnc2cc(-c3ccc4c(c3)N([C@H]3C[C@@H](N5C6COCC5C6)C3)C(=O)C43CCN(C(=O)C4(C)CCN(C(=O)C5CCN(c6ccc(C7CCC(=O)NC7=O)cn6)CC5)CC4)CC3)nc(NC3CC3)c21 (mixture of isomers) [Example 218, (3RS)-3-(6-{4-[4-({6-[4-(cyclopropylamino)-3-(propan-2-yl)-3H-imidazo[4,5-c]pyridin-6-yl]-2-oxo-1-[(1S,3S)-3-{3-oxa-6-azabicyclo[3.1.1]heptan-6-yl}cyclobutyl]-1,2-dihydrospiro[indole-3,4′-piperidin]-1′-yl}carbonyl)-4-methylpiperidine-1-carbonyl]piperidin-1-yl}pyridin-3-yl)piperidine-2,6-dione] | 100 to 500 nM | 50 to 70%
11 | CC(C)n1cnc2cc(-c3ccc4c(c3)N([C@H]3C[C@@H](N5CCC[C@@H](F)C5)C3)C(=O)C43CCN(C(=O)C4(C)CCN(C(=O)C5CCN(c6ccc(C7CCC(=O)NC7=O)cn6)CC5)CC4)CC3)nc(NC3CC3)c21 (mixture of isomers) [Example 219, (3RS)-3-(6-{4-[4-({6-[4-(cyclopropylamino)-3-(propan-2-yl)-3H-imidazo[4,5-c]pyridin-6-yl]-2-oxo-1-[(1S,3S)-3-[(3R)-3-fluoropiperidin-1-yl]cyclobutyl]-1,2-dihydrospiro[indole-3,4′-piperidin]-1′-yl}carbonyl)-4-methylpiperidine-1-carbonyl]piperidin-1-yl}pyridin-3-yl)piperidine-2,6-dione] | 100 to 500 nM | 70 to 85%
12 | CC(C)n1cnc2cc(-c3ccc4c(c3)N([C@H]3C[C@@H](N5CCCCC5)C3)C(=O)C43CCN(C(=O)C4(C)CCN(C(=O)C5CCN(c6ncc(C7CCC(=O)NC7=O)cn6)CC5)CC4)CC3)nc(NC3CC3)c21 (mixture of isomers) [Example 220, (3RS)-3-(2-{4-[4-({6-[4-(cyclopropylamino)-3-(propan-2-yl)-3H-imidazo[4,5-c]pyridin-6-yl]-2-oxo-1-[(1S,3S)-3-(piperidin-1-yl)cyclobutyl]-1,2-dihydrospiro[indole-3,4′-piperidin]-1′-yl}carbonyl)-4-methylpiperidine-1-carbonyl]piperidin-1-yl}pyrimidin-5-yl)piperidine-2,6-dione] | < 100 nM | 70 to 85%
13 | CC(C)n1cnc2cc(-c3ccc4c(c3)N([C@H]3C[C@@H](N5CCCCC5)C3)C(=O)C43CCN(C(=O)C4(C)CCN(C(=O)CC5CCN(c6ccc(C7CCC(=O)NC7=O)cn6)CC5)CC4)CC3)nc(NC3CC3)c21 (mixture of isomers) [Example 221, (3RS)-3-[6-(4-{2-[4-({6-[4-(cyclopropylamino)-3-(propan-2-yl)-3H-imidazo[4,5-c]pyridin-6-yl]-2-oxo-1-[(1S,3S)-3-(piperidin-1-yl)cyclobutyl]-1,2-dihydrospiro[indole-3,4′-piperidin]-1′-yl}carbonyl)-4-methylpiperidin-1-yl]-2-oxoethyl}piperidin-1-yl)pyridin-3-yl]piperidine-2,6-dione] | < 100 nM | 70 to 85%
